In patent US20130197189A1, “Method For Synthesizing A Cyclic Multivalent Peptide Using A Thiol-Mediated Reaction” (The Regents of the University of Colorado, A Body Corporate, priority 2010, published 2013):
Where two headings read alike, the source gives them in different places. *1 amine or outer side, *2 acyl side, *3 side chain or, on linkers, in order; H or OH if unused. Where a SMILES comes first, the peptide text is derived from it. Bridges are numbered along the chain shown (N, C = ends). [ ]: non-standard residue; d: D form. X2 = O=C(C1CC2CC1C([*:1])C2)[*:2]; X1 = O=C(OCCC[*:1])[*:2]

Assays:
GPIIb/IIIa = molecular target: T1, GPIIb/IIIa (Homo sapiens, UniProt P05106+P08514); assay: Fibrinogen binding ELISA (competitive binding ELISA: inhibition of fibrinogen binding to GPIIb/IIIa)
T1 construct: purchased Enzyme Research Laboratories (South Bend, Ind.)
T1 sequence (P08514 32-887 limits assumed): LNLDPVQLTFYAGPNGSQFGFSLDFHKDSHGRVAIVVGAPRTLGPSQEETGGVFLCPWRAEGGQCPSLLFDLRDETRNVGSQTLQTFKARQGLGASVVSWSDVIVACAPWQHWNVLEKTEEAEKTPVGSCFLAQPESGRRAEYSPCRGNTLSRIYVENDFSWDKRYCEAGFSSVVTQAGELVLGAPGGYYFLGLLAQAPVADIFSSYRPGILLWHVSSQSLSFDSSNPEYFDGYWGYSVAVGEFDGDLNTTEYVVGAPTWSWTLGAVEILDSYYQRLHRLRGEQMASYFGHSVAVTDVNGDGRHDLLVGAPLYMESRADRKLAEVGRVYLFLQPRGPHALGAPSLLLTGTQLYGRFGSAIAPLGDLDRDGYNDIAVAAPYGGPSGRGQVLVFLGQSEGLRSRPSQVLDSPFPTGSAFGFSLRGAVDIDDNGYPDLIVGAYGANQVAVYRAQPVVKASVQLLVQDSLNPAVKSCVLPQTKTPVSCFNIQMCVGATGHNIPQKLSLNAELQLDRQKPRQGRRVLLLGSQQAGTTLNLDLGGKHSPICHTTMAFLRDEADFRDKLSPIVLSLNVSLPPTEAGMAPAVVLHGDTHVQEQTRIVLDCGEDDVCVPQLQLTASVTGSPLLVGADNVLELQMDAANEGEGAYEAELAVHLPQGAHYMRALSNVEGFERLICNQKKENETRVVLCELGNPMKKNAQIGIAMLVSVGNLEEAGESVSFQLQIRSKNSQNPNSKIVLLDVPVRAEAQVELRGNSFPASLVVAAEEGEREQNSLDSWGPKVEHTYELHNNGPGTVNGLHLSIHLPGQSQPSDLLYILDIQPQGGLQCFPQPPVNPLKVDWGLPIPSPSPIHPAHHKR
T1 sequence (P05106 27-788): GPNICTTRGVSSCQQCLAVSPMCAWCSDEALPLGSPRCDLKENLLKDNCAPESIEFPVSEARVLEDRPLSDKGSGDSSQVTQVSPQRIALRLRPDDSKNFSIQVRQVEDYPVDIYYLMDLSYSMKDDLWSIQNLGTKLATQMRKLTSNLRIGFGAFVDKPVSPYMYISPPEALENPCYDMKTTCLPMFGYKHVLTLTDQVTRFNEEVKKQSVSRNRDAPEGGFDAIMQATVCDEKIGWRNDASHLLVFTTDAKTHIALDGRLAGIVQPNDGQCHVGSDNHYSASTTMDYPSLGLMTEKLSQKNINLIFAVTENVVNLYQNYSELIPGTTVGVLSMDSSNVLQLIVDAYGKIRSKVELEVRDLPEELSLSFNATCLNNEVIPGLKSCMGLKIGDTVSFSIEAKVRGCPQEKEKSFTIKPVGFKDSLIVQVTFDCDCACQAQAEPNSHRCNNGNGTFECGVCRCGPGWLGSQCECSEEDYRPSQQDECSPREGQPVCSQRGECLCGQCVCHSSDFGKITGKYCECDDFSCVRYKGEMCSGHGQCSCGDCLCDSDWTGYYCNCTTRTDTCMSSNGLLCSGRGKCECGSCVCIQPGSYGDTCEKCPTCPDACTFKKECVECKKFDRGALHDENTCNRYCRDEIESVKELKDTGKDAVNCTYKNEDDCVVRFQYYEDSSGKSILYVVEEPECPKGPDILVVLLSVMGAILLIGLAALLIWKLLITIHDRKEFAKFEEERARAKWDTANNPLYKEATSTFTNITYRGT
Procedure: A 96-well Maxisorp plate (Nunc) was coated with GPIIb/IIIa (10 μg mL^−1, 100 μL) and incubated at 4° C. overnight. The plate was washed (5×) with buffer (50 mM Tris-HCl, 100 mM NaCl, 2 mM CaCl2, 0.05% Tween20, pH 7.4). Blocking solution (3.5% BSA, 100 μL) was added to the well and incubated at 37° C. for 3 hours. The plate was washed (5×) with buffer. Peptides (50 μL) and fibrinogen (40nM, 50 μL) were added to the plate and incubated at room temperature for 3 hours. The plate was washed (5×) and antibody (goat polyclonal to fibrinogen (HRP), 1:20,000 dilution, 100 μL) was added to the plate and incubated for 1 hour at room temperature. The plate was washed (5×) and substrate (2,2′-azino-bis(3-ethylbenzthiazoline-6-sulphonic acid, ABTS, 100 μL) was added to the wells and allowed to react for 5 minutes. The absorbance was measured (Perkin Elmer Wallac Victor2 1420 Multilabel Counter) at 405 nm. The data was analyzed using Graphpad Prism 5.
Glycoprotein Iib-IIIa (GPIIb/IIIa) is present on platelets and its binding to fibrinogen has been associated with platelet aggregation.
A competitive binding ELISA was used to determine the potency of the multivalent RGD peptides. GPIIb/IIIa is known to contain the integrins αIIβ and β3, which bind RGD peptide sequences. Fibrinogen is also known to bind to these integrins. The ELISA was performed to quantitate the inhibition of bound fibrinogen in the presence of RGD peptide. The ELISA was performed as described previously.4 Briefly, GPIIb/IIIa was incubated in a 96 well Maxisorp plate (Nunc) (10 μg ml^−1) overnight at 4° C. The plate was blocked for non-specific interactions using BSA (3.5 wt%, 3 hr). Varying peptides concentrations and fibrinogen (40 nM) was incubated in the plate for 3 hr at room temperature. Fibrinogen antibody (HRP) (1:20,000 dilution) as added (1 hr). The substrate (2,2′-Azinobis[3-ethylbenzothiazoline-6-sulfonic acid]-diammonium salt-ABTS) was added and the absorbance measured at 405 nm. Peptide concentrations are reported as total molecule molarity as opposed to normalized [RGD].

MIN6 cells = MIN6 cells encapsulated in PEG diacrylate gels with RGD, metabolic activity by Alamar Blue assay; type: cell-based; conditions: FIG. 19; for MIN6 viability / cell survival: 100 μM RGD in PEG gel, 10-day study
Source text: To test whether cyclic RGD, when encapsulated in PEG gels may enhance the survival of MIN6 cells, cyclic RGD was incorporated into PEG gels and applied to cell cultures of MIN6 cells. A cyclic RGD dimer was synthesized on-resin using Traut's reagent. The dimer contained a free thiol, which could be utilized for conjugation into PEG networks via thiol-acrylate photopolymerizations.
To examine whether the cyclic RGD derivatives could enhance cell viability, MIN6 cells were encapsulated at a relatively low density (5×10^6 cells mL^−1, data not published) in PEG diacrylate gels with varying amounts of RGD. Cell metabolic activity was measured using an Alamar Blue assay. […] Total molar RGD concentration was held constant during the study.

| Compound | IC50 (GPIIb/IIIa) | MIN6 viability / cell survival (MIN6 cells) | MIN6 metabolic activity relative to linear counterpart at the same concentration (MIN6 cells; 400 μM RGD in PEG gel, 5×10^6 cells mL^−1) | potency relative to linear RGD (compound #1) (GPIIb/IIIa; competitive binding ELISA) | IC50 (GPIIb/IIIa; Table 2, mean ± SEM, triplicate, repeated twice, peptide concentration as total molecule molarity, not normalized [RGD], read-out: IC50(μM), inhibition of fibrinogen binding to GPIIb/IIIa) |
| --- | --- | --- | --- | --- | --- |
| CC(=O)N[C@H]1CSC2CC3CC(C(=O)NCCCC[C@@H](C(N)=O)NC(=O)[C@@H](Cc4ccccc4)NC(=O)[C@H](CO)NC(=O)[C@H](CC(=O)O)NC(=O)CNC(=O)[C@H](CCCNC(=N)N)NC1=O)C2C3 (stereo partly shown) [Ac-c[CRGDSfK(Norbornene)]-NH2] (Ac-CRGDS[dF]K-NH2; linker 1-7 via X2) | 0.36 ± 0.09 µM | – | – | – | – |
| N=C(N)NCCC[C@@H]1NC(=O)[C@@H](NC(=O)CNC(=O)CNC(=O)[C@@H](N)CS)CSCCCOC(=O)NCCCC[C@@H](C(N)=O)NC(=O)[C@@H](Cc2ccccc2)NC(=O)[C@H](CO)NC(=O)[C@H](CC(=O)O)NC(=O)CNC1=O [Compound #2, H-CGGc[CRGDSfK(Alloc)]-NH2] (H-CGGCRGDS[dF]K-NH2; linker 4-10 via X1) | – | increased viability | significantly enhanced metabolic activity | enhanced potency | – |
| N=C(N)NCCC[C@@H]1NC(=O)[C@@H](NC(=O)CNC(=O)CNC(=O)[C@@H](N)CSCC(CCC(=O)NCCCC[C@H](NC(=O)CN)C(=O)NCC(=O)NCCCCCC(=O)NCC(=O)N[C@@H](CCCCNC(=O)CCC(CSC[C@H](N)C(=O)NCC(=O)NCC(=O)N[C@H]2CSCCCOC(=O)NCCCC[C@@H](C(N)=O)NC(=O)[C@@H](Cc3ccccc3)NC(=O)[C@H](CO)NC(=O)[C@H](CC(=O)O)NC(=O)CNC(=O)[C@H](CCCNC(=N)N)NC2=O)SC[C@H](N)C(=O)NCC(=O)NCC(=O)N[C@H]2CSCCCOC(=O)NCCCC[C@@H](C(N)=O)NC(=O)[C@@H](Cc3ccccc3)NC(=O)[C@H](CO)NC(=O)[C@H](CC(=O)O)NC(=O)CNC(=O)[C@H](CCCNC(=N)N)NC2=O)C(=O)NCC(N)=O)SC[C@H](N)C(=O)NCC(=O)NCC(=O)N[C@H]2CSCCCOC(=O)NCCCC[C@@H](C(N)=O)NC(=O)[C@@H](Cc3ccccc3)NC(=O)[C@H](CO)NC(=O)[C@H](CC(=O)O)NC(=O)CNC(=O)[C@H](CCCNC(=N)N)NC2=O)CSCCCOC(=O)NCCCC[C@@H](C(N)=O)NC(=O)[C@@H](Cc2ccccc2)NC(=O)[C@H](CO)NC(=O)[C@H](CC(=O)O)NC(=O)CNC1=O (stereo partly shown) [Compound #7] | 0.012 ± 0.003 µM | – | – | – | – |
| H-CGGRGDS-NH2 [Compound #1, H-CGGRGDS-NH2] | – | not able to support cell survival | – | – | 15.4 ± 4.2 µM |
